Data taken from patent US12622910B2, “Inhibitors of Bruton's tyrosine kinase and methods of their use” (Janssen Pharmaceutica NV, priority 2021, dated 2026).

Tests used:
5-HT Transporter (h) = 5-HT Transporter (h) (Homo sapiens, UniProt P31645); test: Receptor panel, Study 1; format: binding
Procedure: (§1) RESULTS AND DISCUSSION—Selectivity—The compound of Formula (III) was evaluated in three selectivity panels to assess the potential for off-target pharmacology (Table 8). […] The kinase off-target profile of The compound of Formula (III) was assessed in a full human wild-type panel using radiometric kinase activity assays (KinaseProfiler™ and IC50Profiler™; Eurofins Scientific) (Table 9; FIG. 23). The compound of Formula (III) inhibited 4/278 kinases >50% at 1 micromolar, identifying BTK and the three other kinases having analogous Cys residues with the potential for covalent inhibition (BMX, TEC, BLK). […]. The cellular kinase selectivity of The compound of Formula (III) was established in native Ramos B cell kinome assays (KiNativ™; ActivX) confirmed BTK as the primary target with inhibition of BLK and TEC inhibition detected (Table 10).

5-HT1B = 5-HT1B (Rattus norvegicus, UniProt P28564); test: Receptor panel, Study 1; format: binding
Chain of 5-HT1B (P28564 whole entry): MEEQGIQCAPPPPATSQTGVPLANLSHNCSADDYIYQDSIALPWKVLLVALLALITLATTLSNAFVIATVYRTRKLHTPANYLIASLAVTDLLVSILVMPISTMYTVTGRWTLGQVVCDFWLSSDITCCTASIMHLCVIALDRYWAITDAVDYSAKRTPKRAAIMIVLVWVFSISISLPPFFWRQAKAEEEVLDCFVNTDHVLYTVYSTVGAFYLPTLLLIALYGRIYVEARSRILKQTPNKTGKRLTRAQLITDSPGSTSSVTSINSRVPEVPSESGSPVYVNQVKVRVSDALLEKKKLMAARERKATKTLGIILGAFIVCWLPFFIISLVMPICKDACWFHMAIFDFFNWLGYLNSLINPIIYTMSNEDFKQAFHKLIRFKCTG
Procedure: as §1

5-HT3 (h) = 5-HT3 (h) (Homo sapiens, UniProt P46098); test: Receptor panel, Study 1; format: binding
Procedure: as §1

CXCR2 (h) (IL-8B) = CXCR2 (h) (IL-8B) (Homo sapiens, UniProt P25025); test: Receptor panel, Study 1; format: binding
Chain of CXCR2 (h) (IL-8B) (P25025 whole entry): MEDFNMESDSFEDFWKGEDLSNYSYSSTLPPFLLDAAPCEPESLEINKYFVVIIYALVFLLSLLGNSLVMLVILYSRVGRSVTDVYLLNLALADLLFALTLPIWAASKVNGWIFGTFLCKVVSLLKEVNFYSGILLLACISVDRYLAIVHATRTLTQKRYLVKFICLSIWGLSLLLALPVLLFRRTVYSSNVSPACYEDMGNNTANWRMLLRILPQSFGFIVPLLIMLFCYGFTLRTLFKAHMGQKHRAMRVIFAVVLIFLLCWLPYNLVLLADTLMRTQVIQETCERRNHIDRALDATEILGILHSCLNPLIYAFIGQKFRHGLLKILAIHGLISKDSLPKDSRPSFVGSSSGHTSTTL
Procedure: as §1

GAL2 (h) = GAL2 (h) (Homo sapiens, UniProt O43603); test: Receptor panel, Study 1; format: binding
Chain of GAL2 (h) (O43603 whole entry): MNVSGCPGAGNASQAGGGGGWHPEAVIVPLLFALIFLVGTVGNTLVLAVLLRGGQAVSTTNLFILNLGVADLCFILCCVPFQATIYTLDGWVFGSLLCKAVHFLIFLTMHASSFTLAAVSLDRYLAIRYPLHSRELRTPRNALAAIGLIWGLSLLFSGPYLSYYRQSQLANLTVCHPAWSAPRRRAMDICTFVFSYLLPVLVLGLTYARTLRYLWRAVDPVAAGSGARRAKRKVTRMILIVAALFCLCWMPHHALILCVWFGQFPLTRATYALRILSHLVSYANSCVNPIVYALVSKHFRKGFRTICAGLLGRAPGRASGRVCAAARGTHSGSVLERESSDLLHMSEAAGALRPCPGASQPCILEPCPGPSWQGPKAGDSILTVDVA
Procedure: as §1

H1 (h) = H1 (h) (Homo sapiens, UniProt P35367); test: Receptor panel, Study 1; format: binding
Chain of H1 (h) (P35367 whole entry): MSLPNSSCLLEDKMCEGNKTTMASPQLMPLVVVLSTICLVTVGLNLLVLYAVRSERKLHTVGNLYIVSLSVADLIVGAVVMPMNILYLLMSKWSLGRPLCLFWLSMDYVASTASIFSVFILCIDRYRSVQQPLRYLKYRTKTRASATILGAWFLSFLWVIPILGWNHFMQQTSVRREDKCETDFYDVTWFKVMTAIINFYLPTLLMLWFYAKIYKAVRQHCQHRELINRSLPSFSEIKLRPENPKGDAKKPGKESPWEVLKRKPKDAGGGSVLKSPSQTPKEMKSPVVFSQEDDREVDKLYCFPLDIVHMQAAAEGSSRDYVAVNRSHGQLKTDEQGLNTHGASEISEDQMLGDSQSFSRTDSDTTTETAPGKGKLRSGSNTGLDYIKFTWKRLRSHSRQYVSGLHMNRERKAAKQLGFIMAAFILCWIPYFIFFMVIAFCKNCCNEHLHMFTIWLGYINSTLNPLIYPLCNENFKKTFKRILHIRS
Procedure: as §1

MT1 (h) = MT1 (h) (Homo sapiens, UniProt P48039); test: Receptor panel, Study 1; format: binding
Chain of MT1 (h) (P48039 whole entry): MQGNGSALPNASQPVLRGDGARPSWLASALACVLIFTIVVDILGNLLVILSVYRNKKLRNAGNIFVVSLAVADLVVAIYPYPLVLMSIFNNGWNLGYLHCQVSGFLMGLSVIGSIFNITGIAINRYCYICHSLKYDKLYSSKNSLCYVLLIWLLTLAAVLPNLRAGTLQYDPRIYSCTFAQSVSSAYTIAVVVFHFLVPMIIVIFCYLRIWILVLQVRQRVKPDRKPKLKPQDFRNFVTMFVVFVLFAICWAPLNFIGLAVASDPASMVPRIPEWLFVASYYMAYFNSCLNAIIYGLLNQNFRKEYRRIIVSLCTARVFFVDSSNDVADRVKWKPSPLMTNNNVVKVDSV
Procedure: as §1

NE transporter (h) = NE transporter (h) (Homo sapiens, UniProt P23975); test: Receptor panel, Study 1; format: binding
Chain of NE transporter (h) (P23975 whole entry): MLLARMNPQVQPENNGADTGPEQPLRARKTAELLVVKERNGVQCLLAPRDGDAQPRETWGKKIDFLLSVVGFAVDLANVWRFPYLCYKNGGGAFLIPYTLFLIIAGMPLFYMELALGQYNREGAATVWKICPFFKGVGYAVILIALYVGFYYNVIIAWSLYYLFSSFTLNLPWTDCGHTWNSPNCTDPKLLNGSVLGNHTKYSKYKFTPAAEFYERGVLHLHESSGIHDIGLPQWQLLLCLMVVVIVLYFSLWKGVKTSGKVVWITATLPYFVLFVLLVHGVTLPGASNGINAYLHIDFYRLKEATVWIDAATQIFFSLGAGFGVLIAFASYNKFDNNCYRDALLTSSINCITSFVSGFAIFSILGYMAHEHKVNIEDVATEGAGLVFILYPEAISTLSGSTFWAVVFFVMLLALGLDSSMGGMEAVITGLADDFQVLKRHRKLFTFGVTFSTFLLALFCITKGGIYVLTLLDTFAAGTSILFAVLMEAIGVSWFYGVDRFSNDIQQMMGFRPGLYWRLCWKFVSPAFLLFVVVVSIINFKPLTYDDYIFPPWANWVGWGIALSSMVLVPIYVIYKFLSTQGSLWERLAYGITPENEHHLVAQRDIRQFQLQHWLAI
Procedure: as §1

NK2 (h) = NK2 (h) (Homo sapiens, UniProt P21452); test: Receptor panel, Study 1; format: binding
Chain of NK2 (h) (P21452 whole entry): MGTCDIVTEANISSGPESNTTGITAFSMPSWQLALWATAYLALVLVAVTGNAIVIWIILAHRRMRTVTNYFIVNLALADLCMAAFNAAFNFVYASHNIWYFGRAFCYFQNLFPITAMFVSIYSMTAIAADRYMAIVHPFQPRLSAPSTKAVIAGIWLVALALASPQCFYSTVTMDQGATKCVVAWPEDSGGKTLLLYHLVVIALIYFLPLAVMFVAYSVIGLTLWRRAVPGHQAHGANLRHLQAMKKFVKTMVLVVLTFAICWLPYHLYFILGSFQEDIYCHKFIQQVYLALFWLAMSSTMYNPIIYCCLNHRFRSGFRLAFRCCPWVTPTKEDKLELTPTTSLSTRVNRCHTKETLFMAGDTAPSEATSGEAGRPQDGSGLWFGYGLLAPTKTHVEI
Procedure: as §1

Y1 (h) = Y1 (h) (Homo sapiens, UniProt P25929); test: Receptor panel, Study 1; format: binding
Chain of Y1 (h) (P25929 whole entry): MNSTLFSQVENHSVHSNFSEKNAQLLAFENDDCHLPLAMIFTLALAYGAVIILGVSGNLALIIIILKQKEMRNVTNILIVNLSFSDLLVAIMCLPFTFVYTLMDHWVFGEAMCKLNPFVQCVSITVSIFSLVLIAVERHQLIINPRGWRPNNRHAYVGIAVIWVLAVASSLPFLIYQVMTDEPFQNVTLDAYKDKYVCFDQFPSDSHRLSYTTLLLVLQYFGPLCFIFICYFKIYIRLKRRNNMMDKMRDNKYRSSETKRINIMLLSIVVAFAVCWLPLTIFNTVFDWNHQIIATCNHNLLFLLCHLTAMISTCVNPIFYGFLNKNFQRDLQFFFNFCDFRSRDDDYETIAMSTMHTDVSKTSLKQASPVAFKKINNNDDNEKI
Procedure: as §1

alpha 1 = test: Receptor panel, Study 1; format: binding
Procedure: as §1

[1] = Covalent binding to hepatic proteins in human hepatocytes (14C label); format: in vitro ADME
Procedure: The extent of the compound of Formula (III) covalent binding to hepatic proteins was determined in human hepatocytes at 1 and 10 μM (Table 19). A ^14C label was introduced at the acrylamide carbonyl carbon of the compound of Formula (III). […] Troglitazone and pioglitazone served as positive and negative controls, respectively.

P-gp (MDR1) = test: in vitro; settings: dog, MDCK-MDR1
Procedure: (§2) In vitro Absorption, Distribution, Metabolism, and Excretion—The compound of Formula (III) was assessed at a concentration of 5 μM in cell permeability models.

BTK [2] = biological target: T1, BTK (Homo sapiens, UniProt Q06187); test: Ramos B cell BTK occupancy assay (probe ELISA); format: cell-based; set-up: endogenous in cells
T1 sequence (Q06187 whole entry): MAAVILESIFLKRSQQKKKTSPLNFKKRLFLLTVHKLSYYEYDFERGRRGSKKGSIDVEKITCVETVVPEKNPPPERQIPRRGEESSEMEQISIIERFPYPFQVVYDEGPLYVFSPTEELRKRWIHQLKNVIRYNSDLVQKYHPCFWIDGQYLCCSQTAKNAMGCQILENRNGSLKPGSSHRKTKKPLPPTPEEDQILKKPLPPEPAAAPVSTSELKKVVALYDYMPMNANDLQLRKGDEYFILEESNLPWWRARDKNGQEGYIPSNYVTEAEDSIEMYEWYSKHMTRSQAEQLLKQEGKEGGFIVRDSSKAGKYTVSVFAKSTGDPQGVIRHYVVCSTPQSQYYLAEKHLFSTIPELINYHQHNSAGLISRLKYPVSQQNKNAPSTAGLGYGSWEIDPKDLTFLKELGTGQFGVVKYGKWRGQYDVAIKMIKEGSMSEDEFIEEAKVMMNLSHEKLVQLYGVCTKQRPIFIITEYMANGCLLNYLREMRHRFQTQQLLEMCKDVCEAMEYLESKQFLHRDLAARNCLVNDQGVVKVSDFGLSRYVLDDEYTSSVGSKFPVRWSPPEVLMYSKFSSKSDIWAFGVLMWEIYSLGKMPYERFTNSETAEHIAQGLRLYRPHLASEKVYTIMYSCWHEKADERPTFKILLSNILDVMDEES
Procedure: In vitro cellular target engagement-The dose-response of BTK occupancy was assessed using a Ramos B cell occupancy assay. Irreversible reaction with […] excludes it from further reaction and enables selective detection of the free (unreacted) BTK with a chemical probe, which utilizes the same binding site and reaction mechanism as the compound of formula (III). The probe carries a biotin sidechain to tag free BTK with an affinity handle to enable detection by ELISA.

MDCK-MDR1 (Pgp) = test: MDCK-MDR1 permeability and efflux
Procedure: as §2

BTK [3] = biological target: T1, BTK; test: Mechanistic PK/BTKO model and simulations; set-up: measuring free BTK levels in peripheral blood mononuclear cells (PBMCs) and calculating % BTKO; endogenous in cells; host or cells: human PBMCs, lysed after isolation from whole blood
Source text: A mechanistic covalent binding model (FIG. 2) was used to describe the receptor occupancy of compound of Formula (III). The equations describing the binding model are shown in equations 1-5.
where symbols represent the free BTK protein concentration (BTK), drug-BTK complex (BTKb) and covalently bound complex (BTKi). The rate constants in the equations include zero-order rate of BTK synthesis (ksyn); the first-order rate of free BTK degradation (kdegf); the first-order rate of covalently bound complex degradation (Kdegi); association rate drug-BTK binding (kon); dissociation rate drug-BTK binding (koff). C1 is the concentration in central compartment. BTK0 is the baseline value of BTK. […]
In order to refine predictions of % BTKO after multiple dosing for the MAD cohorts and to help select a starting dose for the subsequent first-in-patient oncology study, a prior mechanistic PK/PD model based on in vitro and in vivo BTKO data was updated with clinical PK/BTKO data collected from SAD cohorts of the FIH study. […] The evaluated dosing regimens included 12 mg, 36 mg, 70 mg, 100 mg, 140 mg, 200 mg QD dose. […]
Once MAD data were available, the semi-mechanistic PK/PD model was updated with the acquired data from SAD and MAD cohorts. All covariate effects in the popPK analysis were evaluated on clearance from the central compartment (CL/F) only, except for body weight, food effect, and drug formulation. […]

Chain of 5-HT Transporter (h) (P31645 whole entry): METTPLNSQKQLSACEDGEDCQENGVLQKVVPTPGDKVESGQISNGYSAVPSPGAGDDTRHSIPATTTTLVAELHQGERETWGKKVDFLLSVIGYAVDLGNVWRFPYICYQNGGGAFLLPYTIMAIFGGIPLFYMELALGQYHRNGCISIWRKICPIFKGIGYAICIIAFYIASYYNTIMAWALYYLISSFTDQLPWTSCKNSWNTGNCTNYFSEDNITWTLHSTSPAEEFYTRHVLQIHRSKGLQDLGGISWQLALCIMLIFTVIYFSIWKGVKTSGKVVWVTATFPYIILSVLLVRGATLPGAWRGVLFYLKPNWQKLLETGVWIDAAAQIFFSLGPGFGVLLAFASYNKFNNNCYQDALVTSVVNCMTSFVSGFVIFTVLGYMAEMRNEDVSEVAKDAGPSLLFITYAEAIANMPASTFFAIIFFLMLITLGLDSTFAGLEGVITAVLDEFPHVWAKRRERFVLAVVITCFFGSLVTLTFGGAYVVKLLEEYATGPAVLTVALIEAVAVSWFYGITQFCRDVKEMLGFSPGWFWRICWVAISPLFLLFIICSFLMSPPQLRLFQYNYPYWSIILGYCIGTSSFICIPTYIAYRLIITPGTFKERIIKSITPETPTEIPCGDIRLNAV

For C=CC(=O)N[C@H]1CCC[C@H]1NC(=O)c1sc2nccc3c2c1NC(=O)N3c1cnc(CC(C)C)cc1C (atropisomer, axis not shown) [compound of Formula (III), N-((1R,2S)-2-Acrylamidocyclopentyl)-5-(S)-(6-isobutyl-4-methylpyridin-3-yl)-4-oxo-4,5-dihydro-3H-1-thia-3,5,8-triazaacenaphthylene-2-carboxamide], which inhibition at 10 µM (5-HT Transporter (h)) is on record?
The inhibition at 10 µM was < 10%.

And the inhibition at 10 µM (5-HT1B)?
The inhibition at 10 µM was < 10%.

What about the inhibition at 10 µM (5-HT3 (h)) of the same molecule?
The inhibition at 10 µM was < 10%.

What about the inhibition at 10 µM (CXCR2 (h) (IL-8B)) of the same molecule?
Its inhibition at 10 µM is < 10%.

What about the inhibition at 10 µM (GAL2 (h)) of the same molecule?
The inhibition at 10 µM was < 10%.

And the inhibition at 10 µM (H1 (h))?
The inhibition at 10 µM was < 10%.

What about the inhibition at 10 µM (MT1 (h)) of the same molecule?
The inhibition at 10 µM was 13.4%.

What about the inhibition at 10 µM (NE transporter (h)) of the same molecule?
The inhibition at 10 µM was < 10%.

What about the inhibition at 10 µM (NK2 (h)) of the same molecule?
Its inhibition at 10 µM is 16%.

And the inhibition at 10 µM (Y1 (h))?
Its inhibition at 10 µM is 44.4%.

And the “% Inhibition at 10 μM” value (alpha 1)?
The value was “— (no inhibition observed)”.

And the “Compound Turnover” value ([1]; 1 μM study)?
Its value is 49.1%.

And the “Fraction Covalently Bound (fcvb)” value ([1]; 1 μM study)?
The value was 0.07 ± 0.01.

And the “Net Covalent Binding” value ([1]; 1 μM study, 0.5×10^6 cells/mL, 4.5 h)?
The value was 46.8 ± 5.1 pmol eq/mg protein.

And the “Compound Turnover” value ([1]; 10 μM study)?
The value was 70.1%.

And the “Fraction Covalently Bound (fcvb)” value ([1]; 10 μM study)?
The value was 0.00564 ± 0.0001.

And the “Net Covalent Binding” value ([1]; 10 μM study, 0.75×10^6 cells/mL, 3 h)?
Its value is 50.0 ± 0.8 pmol eq/mg protein.

What about the Papp A→B at 5 μM (P-gp (MDR1)) of the same molecule?
The Papp A→B at 5 μM was < 0.483 ×10⁻⁶ cm/s.

And the Papp B→A at 5 μM (P-gp (MDR1))?
Its Papp B→A at 5 μM is 55.4 ×10⁻⁶ cm/s.

What about the efflux ratio at 5 μM (P-gp (MDR1)) of the same molecule?
Its efflux ratio at 5 μM is > 115.

And the “time to full BTK occupancy” value (BTK [2]; 100 and 300 nM)?
The value was ≤ 40 min.

And the IC50 (BTK [2]; Ramos B cells, n=11, read-out: BTK occupancy IC50 (mean±SD))?
Its IC50 is 21 ± 7 nM.

And the “Efflux Ratio (BA/AB)” value (MDCK-MDR1 (Pgp))?
The value was >115.

What about the “kon, PD model estimate” value (BTK [3]; model (A), SAD cohorts 2-5) of the same molecule?
The value was 0.0447 l/nM/h.

And the “kon, PD model estimate” value (BTK [3]; model (B), all SAD and MAD data)?
Its value is 0.0509 l/nM/h.
